Results: doi:10.1101/2022.11.01.514793v1 (biorxiv, 2022)

These compounds were tested against T1, AdgB (Variovorax paradoxus, UniProt T1X8R6) (assay: isothermal titration calorimetry).
T1 sequence (T1X8R6 28-388 limits assumed): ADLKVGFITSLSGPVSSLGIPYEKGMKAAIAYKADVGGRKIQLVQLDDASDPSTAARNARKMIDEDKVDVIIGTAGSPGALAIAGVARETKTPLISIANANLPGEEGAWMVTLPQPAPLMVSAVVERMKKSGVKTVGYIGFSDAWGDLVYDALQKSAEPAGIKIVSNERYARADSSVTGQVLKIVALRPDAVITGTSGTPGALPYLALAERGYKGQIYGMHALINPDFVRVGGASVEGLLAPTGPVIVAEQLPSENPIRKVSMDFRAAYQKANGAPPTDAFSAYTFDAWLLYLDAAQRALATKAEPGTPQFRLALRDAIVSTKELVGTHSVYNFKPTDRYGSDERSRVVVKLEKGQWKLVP
Assay type: binding

Kd	SMILES
8.4 µM	O=C(O)Cc1c[nH]c2cccc(Cl)c12 [4-Cl-IAA]
25 µM	O=C(O)CCCc1c[nH]c2ccccc12 [IBA]
1.6 µM	O=C(O)CCc1c[nH]c2ccccc12 [IPA]
20 µM	O=C(O)Cc1cccc2ccccc12 [NAA]
